Measured values from PubChem BioAssay AID248 (DTP/NCI, 2004).
Where “and” joins values, the source holds several entries; their conditions need not be identical. Identical values can stand only once. Inconclusive results and toxic doses are left out. Rule as the data show it: active = T/C of 150% or more; inactive = T/C below 125%.

System: L1210 leukemia ip in BDF1 mice, survival T/C
Experiment: NCI In Vivo Anticancer Drug Screen. Data for tumor model L1210 Leukemia (intraperitoneal) in B6D2F1 (BDF1) mice
Conditions: endpoint: mean survival time, higher = longer survival
Method in brief: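 Survival endpoint. Drug-treated group vs vehicle group, expressed as T divided by C. Tumor passaged by transplantation.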

[1] = dose: 100.0 mg/kg/injection, schedule: Q01DX009 (ip), vehicle: saline with Tween-80
[2] = dose: 200.0 mg/kg/injection, schedule: Q01DX009 (ip), vehicle: saline with Tween-80
[3] = dose: 100.0 mg/kg/injection, schedule: Q04DX003 (ip), vehicle: saline
[4] = dose: 100.0 mg/kg/injection, schedule: Q04DX002 (ip), vehicle: Klucel (hydroxypropylcellulose) (HPC)
[5] = dose: 200.0 mg/kg/injection, schedule: Q04DX002 (ip), vehicle: Klucel (hydroxypropylcellulose) (HPC)
[6] = dose: 400.0 mg/kg/injection, schedule: Q04DX002 (ip), vehicle: Klucel (hydroxypropylcellulose) (HPC)
[7] = dose: 100.0 mg/kg/injection, schedule: Q01DX001 (ip), vehicle: Klucel (hydroxypropylcellulose) (HPC)
[8] = dose: 200.0 mg/kg/injection, schedule: Q01DX001 (ip), vehicle: Klucel (hydroxypropylcellulose) (HPC)
[9] = dose: 50.0 mg/kg/injection, schedule: Q01DX001 (ip), vehicle: carboxymethylcellulose (CMC)
[10] = dose: 100.0 mg/kg/injection, schedule: Q01DX001 (ip), vehicle: carboxymethylcellulose (CMC)
[11] = dose: 200.0 mg/kg/injection, schedule: Q01DX001 (ip), vehicle: carboxymethylcellulose (CMC)
[12] = dose: 400.0 mg/kg/injection, schedule: Q01DX001 (ip), vehicle: carboxymethylcellulose (CMC)

Measured: T/C

NCCCC(N)C(=O)NCCCCCCNCCCCCCNC(=O)C(N)CCCN (stereo not given)
inactive: dose: 0.38 mg/kg/injection, schedule: Q01DX Z (ip), vehicle: saline 94 % of control | dose: 0.75 mg/kg/injection, schedule: Q01DX Z (ip), vehicle: saline 102 % of control | dose: 1.5 mg/kg/injection, schedule: Q01DX Z (ip), vehicle: saline 98 % of control | dose: 3.0 mg/kg/injection, schedule: Q01DX Z (ip), vehicle: saline 100 % of control and 106 % of control | dose: 10.0 mg/kg/injection, schedule: Q01DX Z (ip), vehicle: saline 93 % of control | dose: 30.0 mg/kg/injection, schedule: Q01DX Z (ip), vehicle: saline 96 % of control | dose: 50.0 mg/kg/injection, schedule: Q01DX001 (ip), vehicle: saline 101 % of control | dose: 100.0 mg/kg/injection, schedule: Q01DX001 (ip), vehicle: saline 98 % of control | dose: 100.0 mg/kg/injection, schedule: Q01DX Z (ip), vehicle: saline 91 % of control | dose: 200.0 mg/kg/injection, schedule: Q01DX001 (ip), vehicle: saline 95 % of control

Cc1cc(OC(=O)Nc2cccc(Cl)c2)ccc1Cl
inactive: [1] 91 % of control | [2] 93 % of control | dose: 400.0 mg/kg/injection, schedule: Q01DX009 (ip), vehicle: saline with Tween-80 95 % of control

O=C1C(=O)C2(O)C(=O)C12O (stereo not given)
inactive: [3] 91 % of control

Cc1nc(N)nc(C)c1N=Nc1ccc(Br)cc1
inactive: dose: 100.0 mg/kg/injection, schedule: Q04DX003 (ip), vehicle: other 90 % of control | dose: 200.0 mg/kg/injection, schedule: Q04DX003 (ip), vehicle: other 102 % of control | dose: 400.0 mg/kg/injection, schedule: Q04DX003 (ip), vehicle: other 100 % of control

CC(C)=C1N=C(c2ccccc2)OC1=O
inactive: [4] 97 % of control | [5] 111 % of control | [6] 111 % of control

O=c1ccc2ccccc2[nH]1
inactive: [7] 108 % of control | dose: 100.0 mg/kg/injection, schedule: Q01DX001 (ip), vehicle: other 105 % of control | [8] 111 % of control | dose: 200.0 mg/kg/injection, schedule: Q01DX001 (ip), vehicle: other 92 % of control | dose: 400.0 mg/kg/injection, schedule: Q01DX001 (ip), vehicle: Klucel (hydroxypropylcellulose) (HPC) 113 % of control

CCOC(=O)CCC[P+](c1ccccc1)(c1ccccc1)c1ccccc1
inactive: [1] 107 % of control | [2] 113 % of control

O=C(Nc1ccccc1)OCC(F)(F)F
inactive: dose: 100.0 mg/kg/injection, schedule: Q04DX002 (ip), vehicle: gum acacia 105 % of control | dose: 200.0 mg/kg/injection, schedule: Q04DX002 (ip), vehicle: gum acacia 108 % of control | dose: 400.0 mg/kg/injection, schedule: Q04DX002 (ip), vehicle: gum acacia 101 % of control

O=[N+]([O-])c1ccccc1/C=C/C=N/N=C/c1ccccc1O
inactive: dose: 75.0 mg/kg/injection, schedule: Q01DX001 (ip), vehicle: other 94 % of control | dose: 150.0 mg/kg/injection, schedule: Q01DX001 (ip), vehicle: other 95 % of control | dose: 300.0 mg/kg/injection, schedule: Q01DX001 (ip), vehicle: other 88 % of control

COC1=C(NCCc2ccccc2)C(=O)C(OC)=C(NCCc2ccccc2)C1=O
inactive: [9] 96 % of control | [10] 94 % of control | [11] 89 % of control | [12] 89 % of control

NNC(=O)c1ccc(Cl)cc1Cl
inactive: dose: 6.25 mg/kg/injection, schedule: Q04DX003 (ip), vehicle: saline sonified 97 % of control | dose: 12.5 mg/kg/injection, schedule: Q01DX009 (ip), vehicle: Klucel (hydroxypropylcellulose) (HPC) 96 % of control | dose: 12.5 mg/kg/injection, schedule: Q04DX003 (ip), vehicle: saline sonified 101 % of control | dose: 25.0 mg/kg/injection, schedule: Q01DX009 (ip), vehicle: Klucel (hydroxypropylcellulose) (HPC) 106 % of control | dose: 25.0 mg/kg/injection, schedule: Q04DX003 (ip), vehicle: saline sonified 95 % of control

O=C(O)/C=C/C(=O)Nc1cccc(C(F)(F)F)c1
inactive: [4] 100 % of control | [5] 100 % of control | [6] 96 % of control

N#CCCP(CCC#N)CCP(CCC#N)CCC#N
inactive: dose: 100.0 mg/kg/injection, schedule: Q04DX003 (ip), vehicle: saline with Tween-80 96 % of control | dose: 200.0 mg/kg/injection, schedule: Q04DX003 (ip), vehicle: saline with Tween-80 89 % of control | dose: 400.0 mg/kg/injection, schedule: Q04DX003 (ip), vehicle: saline with Tween-80 86 % of control

O=C(O)CCC(=O)c1ccc2c3c1CCCC3CC2 (stereo not given)
inactive: [4] 107 % of control | [5] 101 % of control | [6] 93 % of control

CCN1c2c(nc(N)[nH]c2=O)NCC1CNc1ccc(C(=O)NC(CCC(=O)O)C(=O)O)cc1 (stereo not given)
inactive: dose: 100.0 mg/kg/injection, schedule: Q01DX009 (ip), vehicle: saline 103 % of control | [3] 108 % of control | dose: 200.0 mg/kg/injection, schedule: Q01DX009 (ip), vehicle: saline 115 % of control | dose: 200.0 mg/kg/injection, schedule: Q04DX003 (ip), vehicle: saline 104 % of control | dose: 400.0 mg/kg/injection, schedule: Q01DX009 (ip), vehicle: saline 94 % of control | dose: 400.0 mg/kg/injection, schedule: Q04DX003 (ip), vehicle: saline 103 % of control

CC(=O)Nc1ccc(S(=O)(=O)Nc2ccc(N(CCCl)CCCl)cc2)cc1
inactive: dose: 50.0 mg/kg/injection, schedule: Q04DX002 (ip), vehicle: saline with Tween-80 107 % of control | dose: 100.0 mg/kg/injection, schedule: Q04DX002 (ip), vehicle: saline with Tween-80 110 % of control | dose: 200.0 mg/kg/injection, schedule: Q04DX002 (ip), vehicle: saline with Tween-80 107 % of control | dose: 400.0 mg/kg/injection, schedule: Q04DX002 (ip), vehicle: saline with Tween-80 110 % of control

CC(=O)Nc1ccc(C(=O)O)c(OC(C)=O)c1
inactive: dose: 100.0 mg/kg/injection, schedule: Q01DX001 (ip), vehicle: saline with Tween-80 92 % of control | dose: 200.0 mg/kg/injection, schedule: Q01DX001 (ip), vehicle: saline with Tween-80 96 % of control | dose: 400.0 mg/kg/injection, schedule: Q01DX001 (ip), vehicle: saline with Tween-80 97 % of control

COc1ccccc1N=Nc1c(O)n(-c2ccc(C)cc2)c(=S)n(-c2ccccc2)c1=O
inactive: dose: 50.0 mg/kg/injection, schedule: Q01DX001 (ip), vehicle: Klucel (hydroxypropylcellulose) (HPC) 94 % of control | [7] 87 % of control | [8] 89 % of control

CC1C(=O)NN=C1c1ccc([N+](=O)[O-])cc1 (stereo not given)
inactive: [10] 100 % of control | [11] 100 % of control | [12] 94 % of control

CC(CC(=O)O)c1ccc(C(C)(C)C)cc1 (stereo not given)
inactive: dose: 100.0 mg/kg/injection, schedule: Q04DX003 (ip), vehicle: Klucel (hydroxypropylcellulose) (HPC) 95 % of control | dose: 200.0 mg/kg/injection, schedule: Q04DX003 (ip), vehicle: Klucel (hydroxypropylcellulose) (HPC) 107 % of control | dose: 400.0 mg/kg/injection, schedule: Q04DX003 (ip), vehicle: Klucel (hydroxypropylcellulose) (HPC) 98 % of control

CCOC(=O)CCc1c(C(=O)OCC)[nH]c2ccc(Cl)cc12
inactive: [4] 96 % of control | [5] 100 % of control | [6] 96 % of control

Cn1c(=O)c2[nH]c(CCCc3nc4c([nH]3)c(=O)n(C)c(=O)n4C)nc2n(C)c1=O
inactive: dose: 25.0 mg/kg/injection, schedule: Q01DX001 (ip), vehicle: carboxymethylcellulose (CMC) 93 % of control | [9] 105 % of control | [10] 98 % of control | [11] 101 % of control

NC(CSS(=O)(=O)O)=NCCCCCN=C(N)CSS(=O)(=O)O
inactive: dose: 12.5 mg/kg/injection, schedule: Q04DX003 (ip), vehicle: saline with Tween-80 108 % of control | dose: 25.0 mg/kg/injection, schedule: Q04DX003 (ip), vehicle: saline with Tween-80 102 % of control | dose: 50.0 mg/kg/injection, schedule: Q04DX003 (ip), vehicle: saline with Tween-80 96 % of control

Nc1ncnc(N)c1NC(=O)c1ccc(SCc2ccccc2)cc1
inactive: dose: 100.0 mg/kg/injection, schedule: Q01DX009 (ip), vehicle: Klucel (hydroxypropylcellulose) (HPC) 93 % of control | dose: 400.0 mg/kg/injection, schedule: Q01DX009 (ip), vehicle: Klucel (hydroxypropylcellulose) (HPC) 88 % of control
